Values joined by “and” are separate entries in the source; they are usually repeats but may differ in a detail not shown here. Identical values can stand only once.
Key:
[1] = system: T1, TrkA and p75^NTR (PC12 cells); experiment: 125I-NGF receptor binding to PC12 cells in the presence of competitor; design: species or system rat; conditions: compound 50 μM; 125I-NGF 1 nM; 2 h at 4° C.; receptor binding as percentage of binding in absence of competitor
T1 construct: PC12 cells (rat pheochromocytoma cells expressing TrkA and p75^NTR; obtained from ATCC); host or cells: PC12 rat pheochromocytoma cells (intact, in suspension)
T1 sequence (P01139 122-241): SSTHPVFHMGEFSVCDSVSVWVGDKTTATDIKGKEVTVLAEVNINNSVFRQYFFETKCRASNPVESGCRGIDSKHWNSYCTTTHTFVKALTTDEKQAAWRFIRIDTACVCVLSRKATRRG
Method: (§1) The radio-iodination and receptor binding of NGF (Sutter et al., 1979) was performed with modifications (Ross et al., 1997) as follows: Evaluation of the ability of NCP compounds to inhibit TrkA and p75^NTR binding was determined by the binding of ^125I-NGF to PC12 cells (rat pheochromocytoma cells expressing TrkA and p75^NTR; obtained from ATCC) and PC12^nnr5 (rat pheochromocytoma cells expressing p75^NTR only; obtained from Dr. L. Greene, Columbia University, NY). The p75^NTR is in a low affinity state and a high affinity state, respectively, in these cell types (Ross et al., 1998). PC12 and PC12^nnr5 cells were grown in RPMI (Sigma) with 10% heat inactivated donor horse serum and 5% fetal calf serum. Cells were harvested by replacing the medium with calcium, magnesium-free balanced salt solution (Gey's solution) and incubating at 37° C. for 15 minutes. Cells were pelleted by centrifugation and suspended in HKR buffer (10 mM Hepes [pH 7.35] containing 125 mM NaCl, 4.8 mM KCl, 1.3 mM CaCl2, 1.2 mM MgSO4, 1.2 mM KH2PO4, 1 g/L glucose and 1 g/L BSA) at a cell concentration of 2×10^6/mL and kept at 4° C. Triplicate tubes were set up for total binding, non-specific binding and binding in the presence of candidate competitor molecule (i.e., a tube for each data point). Each tube contained ^125I-NGF (at 1 nM), 400,000 cells (for a final cell concentration of 10^6/mL) and NGF (50 nM, to define non-specific binding), as required. The tubes were incubated for 2 h at 4° C. and specific binding evaluated by measuring specifically bound DPM (Ross et al., 1997). Data were analysed and the results expressed as receptor binding observed in the presence of competitor (e.g. NCP compounds) as a percentage of receptor binding in the absence of a competitor.

[2] = molecular target: T2, TrkA and p75^NTR (PC12 cells) (Mus musculus, UniProt P01139); experiment: as above; design: species or system rat; conditions: compound 50 μM; 125I-NGF 1 nM; 2 h at 4° C.; average of three values
T2 construct: PC12 cells (rat pheochromocytoma cells expressing TrkA and p75^NTR; obtained from ATCC); host or cells: PC12 rat pheochromocytoma cells (intact, in suspension)
T2 sequence (P01139 122-241): as above
Method: as §1

[3] = system: p75^NTR (PC12^nnr5 cells, expressing p75^NTR only); experiment: 125I-NGF receptor binding to PC12^nnr5 cells in the presence of competitor; design: species or system rat; conditions: compound 50 μM, 125I-NGF 1 nM, 2 h at 4° C.; for nnr5 % of Max, Avg: average of three values; for nnr5 % of Max (individual determinations): receptor binding as percentage of binding in absence of competitor
Method: as §1

Structure (SMILES)	PC12 % of Max (individual determinations) [1]	PC12 % of Max, Avg [2]	nnr5 % of Max, Avg [3]	nnr5 % of Max (individual determinations) [3]	melting point [°C]
O=C(O)CCN1C(=O)c2ccc([N+](=O)[O-])cc2C1=O [Compound 141, 4-nitro-N-(2-carboxyethyl)phthalimide]	74 % of Max and 108 % of Max and 87 % of Max	= 90 % of Max	= 96 % of Max	98 % of Max and 114 % of Max and 77 % of Max	
O=C(O)CCCN1C(=O)c2ccc([N+](=O)[O-])cc2C1=O [Compound 142, 4-nitro-N-(3-carboxypropyl)phthalimide]	55 % of Max and 77 % of Max and 67 % of Max	= 66 % of Max	= 51 % of Max	52 % of Max and 51 % of Max (2×)	
O=C(O)CCCCN1C(=O)c2ccc([N+](=O)[O-])cc2C1=O [Compound 143, 4-nitro-N-(4-carboxybutyl)phthalimide]	65 % of Max and 97 % of Max and 72 % of Max	= 78 % of Max	= 75 % of Max	76 % of Max and 79 % of Max and 71 % of Max	
O=C(O)CCCCCN1C(=O)c2ccc([N+](=O)[O-])cc2C1=O [Compound 144, 4-nitro-N-(5-carboxypentyl)phthalimide]	68 % of Max and 89 % of Max and 77 % of Max	= 78 % of Max	= 73 % of Max	74 % of Max (2×) and 70 % of Max	
O=C(O)c1ccc(N2C(=O)c3ccc([N+](=O)[O-])cc3C2=O)cc1 [Compound 145, 4-nitro-N-(p-carboxyphenyl)phthalimide]	60 % of Max and 77 % of Max and 73 % of Max	= 70 % of Max	= 78 % of Max	76 % of Max and 86 % of Max and 71 % of Max	
O=C(O)c1cccc(N2C(=O)c3ccc([N+](=O)[O-])cc3C2=O)c1 [Compound 146, 4-nitro-N-(m-carboxyphenyl)phthalimide]	52 % of Max (2×) and 71 % of Max	= 58 % of Max	= 44 % of Max	48 % of Max and 43 % of Max and 42 % of Max	306 to 308
Nc1ccc2c(c1)C(=O)N(c1ccc(C(=O)O)cc1)C2=O [Compound 165, 4-amino-N-(p-carboxyphenyl)phthalimide]	54 % of Max and 53 % of Max and 40 % of Max	= 49 % of Max	= 61 % of Max	61 % of Max and 53 % of Max and 68 % of Max	
Nc1ccc2c(c1)C(=O)N(c1cccc(C(=O)O)c1)C2=O [Compound 166, 4-amino-N-(m-carboxyphenyl)phthalimide]	43 % of Max and 58 % of Max and 71 % of Max	= 57 % of Max	= 58 % of Max	55 % of Max and 64 % of Max and 56 % of Max	
O=C(O)c1ccc(N2C(=O)c3cccc4cc([N+](=O)[O-])cc(c34)C2=O)cc1 [Compound 205, 3-nitro-N-(p-carboxyphenyl)-1,8-naphthalimide]	16 % of Max and 19 % of Max and 15 % of Max	= 17 % of Max	= 9 % of Max	0 % of Max and 11 % of Max and 15 % of Max	
O=C(O)c1cccc(N2C(=O)c3cccc4cc([N+](=O)[O-])cc(c34)C2=O)c1 [Compound 206, 3-nitro-N-(m-carboxyphenyl)-1,8-naphthalimide]	25 % of Max and 29 % of Max and 35 % of Max	= 30 % of Max	= 23 % of Max	20 % of Max and 17 % of Max and 33 % of Max	
O=C(O)c1ccccc1N1C(=O)c2cccc3cc([N+](=O)[O-])cc(c23)C1=O [Compound 207, 3-nitro-N-(o-carboxyphenyl)-1,8-naphthalimide]	60 % of Max and 34 % of Max and 69 % of Max	= 54 % of Max	= 58 % of Max	64 % of Max and 52 % of Max and 59 % of Max	
O=C(O)c1ccc(CN2C(=O)c3cccc4cc([N+](=O)[O-])cc(c34)C2=O)cc1 [Compound 208, 3-nitro-N-(p-carboxyphenylmethyl)-1,8-naphthalimide]	56 % of Max and 45 % of Max and 47 % of Max	= 49 % of Max	= 83 % of Max	103 % of Max and 87 % of Max and 58 % of Max	
O=C(O)c1ccc(N2C(=O)c3cccc4c([N+](=O)[O-])ccc(c34)C2=O)cc1 [Compound 225, 4-nitro-N-(p-carboxyphenyl)-1,8-naphthalimide]	69 % of Max and 60 % of Max and 68 % of Max	= 66 % of Max	= 56 % of Max	49 % of Max and 50 % of Max and 68 % of Max	
O=C(O)c1cccc(N2C(=O)c3cccc4c([N+](=O)[O-])ccc(c34)C2=O)c1 [Compound 226, 4-nitro-N-(m-carboxyphenyl)-1,8-naphthalimide]	27 % of Max and 29 % of Max and 35 % of Max	= 30 % of Max	= 12 % of Max	13 % of Max (2×) and 10 % of Max	

Source: patent publication US7148352B2, “Method of inhibiting neurotrophin-receptor binding” (Queen's University at Kingston, priority 1999, dated 2006)
